Test results reported in patent US6306860A, “2,5-pyridinedicarboxylic acid derivatives” (Dong Wha Pharm. Inc. Co., Ltd., priority 1998, dated 2001).
Structures can show the parent of a compound that is named as a salt. Where two headings read alike, the source gives them in different places.

Assays:
HBV = details: results of some studies; cited from earlier work
[1] = target: T1, HIV reverse transcriptase (Human immunodeficiency virus type 1 group M subtype B, UniProt P04585); assay: In vitro inhibition test against HIV reverse transcriptase; assay type: biochemical; details: read-out: Inhibitory activity of HIV-RT (%)
T1 construct: purchased Boehringer Mannheim
Method in brief: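 Non-radioactive colorimetric kit assay: 40 ng HIV-RT with poly(A)/oligo(dT)15 template/primer plus DIG-dUTP, biotin-dUTP and TTP, incubated with compound 1 h at 37 °C. Product captured on streptavidin, detected with anti-DIG-POD and ABTS; A405 read, with activity compared to a no-compound control.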

HBV polymerase = target: T2, HBV polymerase (Hepatitis B virus genotype D subtype ayw, UniProt P03156); assay: Inhibitory activities against HBV polymerase (reverse transcriptase activity) in vitro; assay type: biochemical; details: read-out: Inhibitory activity of HBV-RT (%); for inhibition at 0.01 µg/mL: 0.01 μg/ml; for inhibition at 0.1 µg/mL: 0.1 μg/ml; for inhibition at 1 µg/mL: 1 μg/ml
T2 construct: made in house; host or cells: E. coli
T2 sequence (P03156 whole entry): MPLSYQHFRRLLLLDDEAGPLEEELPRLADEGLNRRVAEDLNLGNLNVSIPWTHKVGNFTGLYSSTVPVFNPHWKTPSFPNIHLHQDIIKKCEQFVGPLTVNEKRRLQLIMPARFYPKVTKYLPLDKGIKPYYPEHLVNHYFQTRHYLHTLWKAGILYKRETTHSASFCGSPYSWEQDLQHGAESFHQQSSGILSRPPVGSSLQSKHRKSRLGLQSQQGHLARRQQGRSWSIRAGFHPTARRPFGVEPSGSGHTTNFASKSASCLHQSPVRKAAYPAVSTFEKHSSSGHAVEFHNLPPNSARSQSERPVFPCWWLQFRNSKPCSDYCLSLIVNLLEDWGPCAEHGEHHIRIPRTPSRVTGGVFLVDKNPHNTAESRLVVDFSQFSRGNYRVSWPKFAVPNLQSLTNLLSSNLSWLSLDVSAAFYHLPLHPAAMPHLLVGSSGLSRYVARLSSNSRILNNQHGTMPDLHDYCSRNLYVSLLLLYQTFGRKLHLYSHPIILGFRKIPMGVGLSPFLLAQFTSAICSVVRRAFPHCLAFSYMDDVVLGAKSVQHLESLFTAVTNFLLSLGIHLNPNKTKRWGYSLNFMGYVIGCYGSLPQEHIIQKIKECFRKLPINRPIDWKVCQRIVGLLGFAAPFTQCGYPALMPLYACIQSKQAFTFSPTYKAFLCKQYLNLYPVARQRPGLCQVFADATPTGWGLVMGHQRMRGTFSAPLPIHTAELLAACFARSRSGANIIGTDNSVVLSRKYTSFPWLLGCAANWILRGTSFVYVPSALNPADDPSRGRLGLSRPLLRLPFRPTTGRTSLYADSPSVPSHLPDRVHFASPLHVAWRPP
Method in brief: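 Recombinant HBV polymerase expressed in E. coli was incubated with reaction mixture and test compound for 18~24 hours at 14° C.~30° C. Reverse transcriptase product, labelled with biotin- and DIG-modified nucleotide, detected ELISA-style with peroxidase anti-DIG antibody; inhibition judged relative to controls without compound.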

Structure (SMILES) | suppressing the proliferation of HBV (HBV) | inhibition at 0.1 µg/mL [1] [%] | inhibition at 1 µg/mL [1] [%] | inhibition at 0.01 µg/mL (HBV polymerase) [%] | inhibition at 0.1 µg/mL (HBV polymerase) [%] | inhibition at 1 µg/mL (HBV polymerase) [%] | inhibition at 0.1 µg/mL ([1]; 0.1 μg/ml) [%] | inhibition at 1 µg/mL ([1]; 1 μg/ml) [%]
Nc1ccn([C@@H]2CS[C@H](CO)O2)c(=O)n1 [Lamivudine] | effective in suppressing the proliferation of HBV | – | – | – | – | – | – | –
CC(=O)OCC(CCn1cnc2cnc(N)nc21)COC(C)=O [Famvir] | effective in suppressing the proliferation of HBV | – | – | – | – | – | – | –
COC(CNC(=O)c1ccc(C(=O)N2CCN(CCO)CC2)nc1)OC [Exam. 101, N-(2,2-dimethoxyethyl)-6-[1-(2-hydroxyethyl)piperazin-4-yl-carbonyl]nicotinamide] | – | 41 | 56 | 55 | 63 | 85 | – | –
CC(C)Nc1cccnc1N1CCN(C(=O)c2ccc(C(=O)NCc3cccnc3)cn2)CC1 [Exam. 76, 6-[1-[3-(isopropylamino)-2-pyridyl]piperazin-4-yl-carbonyl]-N-(3-pyridylmethyl)nicotinamide] | – | – | – | 30 | 53 | 62 | 57 | 82
O=C(NCCO)c1ccc(C(=O)N2CCN(CCO)CC2)nc1 [Exam. 93, N-(2-hydroxyethyl)-6-[1-(2-hydroxyethyl)piperazin-4-yl-carbonyl]nicotinamide] | – | – | – | 30 | 59 | 73 | 25 | 50
CC(C)NC(=O)c1ccc(C(=O)N2CCN(CCO)CC2)nc1 [Exam. 87, 6-[1-(2-hydroxyethyl)piperazin-4-yl-carbonyl]-N-isopropylnicotinamide.HCl] | – | – | – | 52 | 58 | 75 | 60 | 81
COCCNC(=O)c1ccc(C(=O)N2CCN(CCO)CC2)nc1 [Exam. 98, 6-[1-(2-hydroxyethyl)piperazin-4-yl-carbonyl]-N-(2-methoxyethyl)nicotinamide.HCl] | – | – | – | 57 | 70 | 85 | 61 | 76
CC(C)NC(=O)c1ccc(C(=O)N2CCN(c3ncccc3N)CC2)nc1 [Exam. 27, 2-[1-(3-amino-2-pyridyl)piperazin-4-yl-carbonyl]-5-(N-isopropylcarbamoyl)pyridine] | – | – | – | 43 | 62 | 79 | 54 | 70
CC(C)Nc1cccnc1N1CCN(C(=O)c2ccc(C(=O)NC3CCSC3=O)cn2)CC1 (stereo not drawn) [Exam. 57, 2-[1-[3-(isopropylamino)-2-pyridyl]piperazin-4-yl-carbonyl]-5-[N-(tetrahydro-2-thiophenon-3-yl)carbamoyl]pyridine] | – | – | – | 23 | 53 | 72 | 61 | 70
CCN(CC)C(=O)c1ccc(C(=O)N2CCN(c3ncccc3NC(C)C)CC2)nc1 [Exam. 33, 5-(N,N-diethylcarbamoyl)-2-[1-[3-(isopropylamino)-2-pyridyl]piperazin-4-yl-carbonyl]pyridine] | – | – | – | 20 | 62 | 73 | 64 | 80
CC(C)Nc1cccnc1N1CCN(C(=O)c2ccc(C(=O)Nc3nncs3)cn2)CC1 [Exam. 69, 6-[1-[3-(isopropylamino)-2-pyridyl]piperazin-4-yl-carbonyl]-N-(1,3,4-thiadiazol-2-yl)nicotinamide] | – | – | – | 12 | 47 | 64 | 35 | 67
CC(C)Nc1cccnc1N1CCN(C(=O)c2ccc(C(=O)NC3CCCC3)cn2)CC1 [Exam. 37, 5-(N-cyclopentylcarbamoyl)-2-[1-[3-(isopropylamino)-2-pyridyl]piperazin-4-yl-carbonyl]pyridine] | – | – | – | 39 | 65 | 75 | 25 | 51
COCCCNC(=O)c1ccc(C(=O)N2CCN(c3ncccc3NCC(C)C)CC2)nc1 [Exam. 47, 2-[1-[3-(isobutylamino)-2-pyridyl]piperazin-4-yl-carbonyl]-5-[N-(3-methoxypropyl)carbamoyl]pyridine] | – | – | – | 20 | 51 | 72 | 53 | 69
CC(C)Nc1cccnc1N1CCN(C(=O)c2ccc(C(=O)NCCCN3CCCC3=O)cn2)CC1 [Exam. 58, 2-[1-[3-(isopropylamino)-2-pyridyl]piperazin-4-yl-carbonyl]-5-[N-[3-(2-pyrrolidinon-1-yl)propyl]carbamoyl]pyridine.HCl] | – | – | – | 63 | 72 | 84 | 45 | 63
COCCNC(=O)c1ccc(C(=O)N2CCN(c3ncccc3NCC(C)C)CC2)nc1 [Exam. 41, 2-[1-[3-(isobutylamino)-2-pyridyl]piperazin-4-yl-carbonyl]-5-[N-(2-methoxyethyl)carbamoyl]-pyridine] | – | – | – | 52 | 70 | 85 | 34 | 55
CC(C)Nc1cccnc1N1CCN(C(=O)c2ccc(C(=O)NCCc3ccccn3)cn2)CC1 [Exam. 82, 6-[1-[3-(isopropylamino)-2-pyridyl]piperazin-4-yl-carbonyl]-N-[2-(2-pyridyl)ethyl]nicotinamide] | – | – | – | 24 | 53 | 67 | 65 | 80
Cc1ncc(CO)c(CNC(=O)c2ccc(C(=O)N3CCN(c4ncccc4NC(C)C)CC3)nc2)c1O [Exam. 78] | – | – | – | 15 | 58 | 62 | 52 | 70
O=C(NCCN1CCOCC1)c1ccc(C(=O)N2CCN(CCO)CC2)nc1 [Exam. 102, 6-[1-(2-hydroxyethyl)piperazin-4-yl-carbonyl]-N-[2-(morpholin-4-yl)-ethyl]nicotinamide.HCl] | – | – | – | 32 | 56 | 70 | 25 | 40
CC(C)CNc1cccnc1N1CCN(C(=O)c2ccc(C(=O)NC(C)(C)CO)cn2)CC1 [Exam. 23, 5-[N-(1,1-dimethyl-2-hydroxyethyl)carbamoyl]-2-[1-[3-(isobutylamino)-2-pyridyl]piperazin-4-yl-carbonyl]pyridine] | – | – | – | 63 | 71 | 90 | 46 | 62
CC(C)Nc1cccnc1N1CCN(C(=O)c2ccc(C(=O)N(CCO)CCO)cn2)CC1 [Exam. 16, 5-[N,N-bis(2-hydroxyethyl)carbamoyl]-2-[1-[3-(isopropylamino)-2-pyridyl]piperazin-4-yl-carbonyl]pyridine] | – | – | – | 51 | 60 | 70 | 47 | 68
CC(C)CNc1cccnc1N1CCN(C(=O)c2ccc(C(=O)NCCCn3ccnc3)cn2)CC1 [Exam. 84, N-[3-(1H-imidazol-1-yl)propyl]-6-[1-[3-(isobutylamino)-2-pyridyl]piperazin-4-yl-carbonyl]nicotinamide] | – | – | – | 60 | 72 | 88 | 50 | 62
CC[C@H](CO)NC(=O)c1ccc(C(=O)N2CCN(CCO)CC2)nc1 [Exam. 94, 6-[1-(2-hydroxyethyl)piperazin-4-yl-carbonyl]-N-[(1R)-1-(hydroxymethyl)propyl]nicotinamide.HCl] | – | – | – | 20 | 51 | 72 | 30 | 62
CC(C)Nc1cccnc1N1CCN(C(=O)c2ccc(C(=O)Nc3ccccn3)cn2)CC1 [Exam. 70, 6-[1-[3-(isopropylamino)-2-pyridyl]piperazin-4-yl-carbonyl]-N-(2-pyridyl)nicotinamide] | – | – | – | 26 | 55 | 74 | 55 | 74
COCCCNC(=O)c1ccc(C(=O)N2CCN(CCO)CC2)nc1 [Exam. 99, 6-[1-(2-hydroxyethyl)piperazin-4-yl-carbonyl]-N-(3-methoxypropyl)nicotinamide] | – | – | – | 15 | 60 | 68 | 65 | 75
CCNc1cccnc1N1CCN(C(=O)c2ccc(C(=O)NC(C)C)cn2)CC1 [Exam. 25, 2-[1-[3-(ethylamino)-2-pyridyl]piperazin-4-yl-carbonyl]-5-(N-isopropylcarbamoyl)pyridine] | – | – | – | 54 | 67 | 85 | 52 | 75
